# From ChEMBL document CHEMBL5303304, “EUbOPEN Chemogenomics Library - IncuCyte” (2023)
# Columns and labels:
# Type in all cases: toxicity, cell-based
# Fibroblast = test: Incucyte cell viability with human fibroblast; conditions: 10 µM, compound concentration 10 uM
# HEK-293T = test: Incucyte cell viability with HEK293T; conditions: human, 10 µM, compound concentration 10 uM
# U2OS = test: Incucyte cell viability with U2OS; conditions: human, 10 µM, compound concentration 10 uM
# Note: unitless GR value; below 1 slowed growth and below 0 cell loss.
Compound,"Growth Rate (Fibroblast; 0 h, replicate number 2)","Growth Rate (Fibroblast; 18 h, replicate number 1)","Growth Rate (HEK-293T; 6 h, replicate number 1)","Growth Rate (HEK-293T; 6 h, replicate number 2)","Growth Rate (HEK-293T; 12 h, replicate number 1)","Growth Rate (HEK-293T; 12 h, replicate number 2)","Growth Rate (HEK-293T; 18 h, replicate number 1)","Growth Rate (HEK-293T; 18 h, replicate number 2)","Growth Rate (HEK-293T; 24 h, replicate number 1)","Growth Rate (HEK-293T; 24 h, replicate number 2)","Growth Rate (U2OS; 0 h, replicate number 1)","Growth Rate (U2OS; 6 h, replicate number 1)","Growth Rate (U2OS; 12 h, replicate number 1)","Growth Rate (U2OS; 12 h, replicate number 2)","Growth Rate (U2OS; 18 h, replicate number 1)","Growth Rate (U2OS; 18 h, replicate number 2)","Growth Rate (U2OS; 24 h, replicate number 1)","Growth Rate (U2OS; 24 h, replicate number 2)","Growth Rate (Fibroblast; 6 h, replicate number 1)","Growth Rate (Fibroblast; 12 h, replicate number 1)",also measured
CCN1CCN(Cc2ccc(NC(=O)c3ccc(C)c(NC(=O)c4cncc(-c5cccs5)c4)c3)cc2C(F)(F)F)CC1,-0.99,-0.92,-0.97,-0.99,-0.9,-0.83,-0.73,-0.61,-0.6,-0.41,-0.74,-0.87,-0.52,-0.42,-0.59,-0.53,-0.6,-0.55,–,–,"Growth Rate (Fibroblast; 6 h, replicate number 2): -1; Growth Rate (Fibroblast; 12 h, replicate number 2): -0.76; Growth Rate (Fibroblast; 18 h, replicate number 2): -0.54; Growth Rate (Fibroblast; 24 h, replicate number 1): -0.74; Growth Rate (Fibroblast; 24 h, replicate number 2): -0.41; Growth Rate (U2OS; 0 h, replicate number 2): -0.23; Growth Rate (U2OS; 6 h, replicate number 2): -0.47"
Nc1ccc(-c2cnc(N)c(-c3ccc(Cl)cc3)c2)cn1,-0.5,–,–,–,–,–,–,0.92,–,0.78,-0.24,–,–,–,–,–,–,–,-1,–,"Growth Rate (Fibroblast; 0 h, replicate number 1): 0.71; Growth Rate (HEK-293T; 0 h, replicate number 1): -0.26; Growth Rate (HEK-293T; 0 h, replicate number 2): -0.3; Growth Rate (U2OS; 0 h, replicate number 2): -0.83"
COc1cc(-c2cc(-c3cccc(O)c3)cnc2N)cc(OC)c1OC,-0.98,0.59,-0.66,0.38,-0.58,0.41,-0.43,0.33,-0.24,0.42,–,–,0.89,0.96,0.73,0.85,0.75,0.86,-0.21,-1,"Growth Rate (Fibroblast; 0 h, replicate number 1): 0.1"
CNC1(C)C2CCC(C2)C1(C)C.Cl (centres undefined) [MECAMYLAMINE HYDROCHLORIDE],0.92,0.43,0.95,0.89,0.74,0.84,–,0.89,–,0.91,0.92,1,–,0.97,0.93,0.64,0.98,0.73,0.44,-1,"Growth Rate (Fibroblast; 0 h, replicate number 1): 0.75; Growth Rate (Fibroblast; 12 h, replicate number 2): 0.66; Growth Rate (U2OS; 0 h, replicate number 2): -0.76; Growth Rate (U2OS; 6 h, replicate number 2): 0.24"
CNc1nc(NCc2ncccn2)c2c(-c3ccc4ncccc4c3)c[nH]c2n1,-0.54,0.83,0.58,0.42,0.9,0.84,0.83,0.8,0.84,0.86,–,0.78,–,0.7,0.84,0.85,0.94,0.86,–,-0.94,"Growth Rate (Fibroblast; 0 h, replicate number 1): -0.08; Growth Rate (U2OS; 6 h, replicate number 2): 0.82"
CCOCCn1cc(C(=O)Nc2ccc(-n3nc(-c4cccnc4)cc3C(F)(F)F)cn2)ccc1=O [BI 1935],-0.02,0.83,0.1,-0.06,0.36,0.27,0.41,0.43,0.48,0.51,–,0.75,0.52,0.89,0.7,–,0.66,–,–,0.59,"Growth Rate (Fibroblast; 6 h, replicate number 2): 0.1; Growth Rate (Fibroblast; 12 h, replicate number 2): 0.65; Growth Rate (Fibroblast; 24 h, replicate number 1): 0.78"
Clc1ccc(-c2nc3sccn3c2/C=N/OCc2ccc(Cl)c(Cl)c2)cc1,0.32,0.63,–,1,–,1,–,–,–,–,0.48,–,0.92,0.89,0.87,0.95,–,0.93,0.02,0.58,"Growth Rate (Fibroblast; 24 h, replicate number 1): 0.85; Growth Rate (HEK-293T; 0 h, replicate number 1): -0.74; Growth Rate (HEK-293T; 0 h, replicate number 2): -0.64; Growth Rate (U2OS; 6 h, replicate number 2): 0.91"
CC(C(=O)Nc1cc(C#N)ccc1CCCC(=O)O)c1ccc(F)c2ccccc12 (centres undefined),-0.98,–,–,–,–,–,–,–,–,–,0,0.47,0.72,–,0.92,–,0.78,–,–,–,"Growth Rate (Fibroblast; 24 h, replicate number 2): 0.93; Growth Rate (HEK-293T; 0 h, replicate number 1): 0.5; Growth Rate (HEK-293T; 0 h, replicate number 2): 0.28"
O=C1N=C(NCc2cccs2)S/C1=C\c1ccc2ncccc2c1,–,–,–,–,–,–,–,–,–,–,0.58,–,-0.76,0.57,0.78,0.67,0.64,0.78,0.04,–,"Growth Rate (Fibroblast; 0 h, replicate number 1): -0.1; Growth Rate (HEK-293T; 0 h, replicate number 1): -0.36; Growth Rate (HEK-293T; 0 h, replicate number 2): -0.64; Growth Rate (U2OS; 0 h, replicate number 2): -0.23"
O=C(NC[C@@H]1[C@H]2CN(C(=O)OCc3cc(C(F)(F)F)cc(C(F)(F)F)c3)C[C@@H]12)c1ccc2[nH]nnc2c1 [BI 2545],-0.7,–,-0.09,-0.7,0.5,0.56,0.6,0.94,0.76,0.91,–,0.88,–,-0.13,–,0.23,–,0.42,0.33,–,"Growth Rate (Fibroblast; 6 h, replicate number 2): -0.08; Growth Rate (Fibroblast; 12 h, replicate number 2): 0.94; Growth Rate (U2OS; 0 h, replicate number 2): -0.98; Growth Rate (U2OS; 6 h, replicate number 2): -0.56"
COc1cc(N[C@@H]2CCCC[C@]2(O)C(F)(F)F)ccc1F [BAY-9897],–,–,–,0.88,–,0.88,–,–,–,–,-0.16,0.53,0.68,–,0.78,0.96,0.88,0.77,–,0.82,"Growth Rate (HEK-293T; 0 h, replicate number 1): 0.51; Growth Rate (HEK-293T; 0 h, replicate number 2): 0.5"
